In article PMC12655733, “Design, Synthesis and Evaluation of the First 2-Alkynyl(aza)indole ^18F Probe Targeting α-Synuclein Aggregates” (Pharmaceuticals, 2025):
Where two headings read alike, the source gives them in different places.

Tests used:
Aβ1-42 fibrils [1] = biological target: T1, Aβ1-42 fibrils (Homo sapiens, UniProt P05067); test: Inhibition of thioflavin T binding to Aβ1-42 fibrils (fluorescence competition), Ki determination; conditions: calculated from IC50, competition with ThT 500 nM, fibrils 500 nM, mean ± SD of 3 experiments; read-out: Ki Aβ
T1 construct: Wild-type α-syn and Aβ1-42 were expressed; made in house; host or cells: Escherichia coli BL21(DE3)
Experimental: (§1) Wild-type α-syn and Aβ1-42 were expressed in the Escherichia coli strain BL21(DE3) (Stratagene, La Jolla, CA, USA) and purified as described. […] For the Aβ1-42 peptide, the concentration was determined by a fluorometric method using the reactive compound fluorescamine (Sigma, San Jose, CA, USA) that reacts with primary amino groups to form a fluorescent product. The human Tau protein (isoform h2N4RTau) was expressed in the pET11d vector in the Escherichia coli strain BL21(DE3) (Stratagene, La Jolla, CA, USA) and purified as described.
(§2) For assembly into fibrils, α-syn was incubated in 50 mM Tris-HCl, pH 7.5, 150 mM KCl at 37 °C under continuous shaking for 4 days. Lyophilized Aβ1-42 was dissolved in 1,1,1,3,3,3-hexafluoro-2-propanol (HFIP) at a concentration of 0.2 mg/mL and incubated for 24 h at 37 °C to achieve complete solubilization. HFIP was evaporated under a nitrogen stream to obtain a dry film. To start assembly into fibrils, the dry peptide was resuspended in PBS pH 7.4, 10% (v/v) DMSO and incubated at 37 °C without shaking for 3 days. The Tau protein was assembled in fibrils in a PBS buffer containing 1 mM of DTT in the presence of 1/12 heparin (v/v) at 37 °C under shaking. […] Protein fibrils were systematically examined by transmission electron microscopy (TEM) in a Jeol 1400 transmission electron microscope following adsorption onto carbon-coated 200 mesh grids and negative staining with 1% uranyl acetate. The images were recorded with a Gatan Orius CCD camera (Gatan, Pleasanton, CA, USA). Finally, the percentage of α-syn or Aβ1-42 aggregated into fibrils was assessed by pelleting fibrils at 40,000× g for 20 min and by determining the concentration of soluble protein/peptide remaining in the supernatant.
(§3) The samples were incubated for 1 h at room temperature to achieve complete equilibration.

[2] = biological target: T2, Tau fibrils (isoform h2N4RTau) (Homo sapiens, UniProt P10636); test: Inhibition of thioflavin T binding to Tau fibrils (fluorescence competition), Ki determination; conditions: calculated from IC50, competition with ThT 500 nM, fibrils 200 nM, mean ± SD of 3 experiments
T2 construct: made in house; host or cells: Escherichia coli BL21(DE3), pET11d vector
Experimental: as §1, §2, §3

α-syn fibrils [3] = biological target: T3, α-syn fibrils (Homo sapiens, UniProt P37840); test: Inhibition of thioflavin T binding to α-syn fibrils (fluorescence competition), Ki determination
T3 construct: made in house; host or cells: Escherichia coli BL21(DE3)
Experimental: as §1, §2, §3

α-syn fibrils [4] = biological target: T3, α-syn fibrils; test: Direct fluorescence titration on α-syn fibrils: Kd and Bmax; assay type: binding; conditions: direct assay on fibrils, mean ± SD of 3 experiments
Excerpt: (§4) In view of the interesting properties of compounds 33–39, we decided to switch to azaindole structures and to study the impact of the position of the nitrogen atom in the 6-membered ring on binding to fibrils. At this step we measured, in addition to the Ki values, the direct binding of each compound to fibrils through the fluorescence in the fraction bound to fibrils, which allowed us to determine the affinity values (Kd, Table 1). […] We therefore prepared a fluorinated derivative of compound 43, i.e., 45.
(§5) Fresh solutions of each tested compound (2.5 mM in DMSO) were diluted in PBS pH 7.4 at concentrations ranging from 0.5 nM to 5 µM in the presence or absence of α-syn, Aβ1-42, or Tau fibrils (200 nM, 500 nM, or 200 nM, respectively) in a final volume of 2 mL. After 1 h incubation at room temperature, the binding of each compound to α-syn, Aβ1-42, or Tau fibrils was assessed by fluorescence measurements using the appropriate excitation/emission wavelengths (i.e., those yielding the highest fluorescence ratio between fibril-bound and free compound). For any given concentration of compound added to the fibrils, the concentrations of compound bound to the fibrils and free in solution were determined on the basis of the measured fluorescence. Since at each point of the titration: Fm = FB × B + FF × (T − B) where Fm is the measured fluorescence of the compound in the presence of fibrils at a given compound concentration T, FB is the specific molar fluorescence of the bound compound, FF is the specific molar fluorescence of the free compound, and B is the concentration of compound bound to the fibrils at any point of the titration. FF was determined by measuring the fluorescence of known compound concentrations in the absence of fibrils. FB was determined by measuring the maximum fluorescence of known compound concentrations upon saturation with α-syn, Aβ1-42, or Tau fibrils.
(§6) Therefore, at each point of the titration, the concentration of bound compound B could be determined and was B = (Fm − FF × T)/FB − FF. The B values thus determined versus the respective concentrations of free compound were analyzed by fitting to the Michaelis-Menten equation.

Aβ1-42 fibrils [5] = biological target: T1, Aβ1-42 fibrils; test: Direct fluorescence titration on Aβ1-42 fibrils: Kd and Bmax; assay type: binding; conditions: direct assay on fibrils, mean ± SD of 3 experiments; read-out: Kd Aβ
Excerpt: as §4, §5, §6

[6] = biological target: T2, Tau fibrils (isoform h2N4RTau); test: Direct fluorescence titration on Tau fibrils: Kd and Bmax; assay type: binding; conditions: direct assay on fibrils, mean ± SD of 3 experiments
Excerpt: as §4, §5, §6

α-syn fibrils [7] = biological target: T3, α-syn fibrils; conditions: cited from earlier work
Aβ fibrils = conditions: cited from earlier work
α-syn fibrils [8] = biological target: T3, α-syn fibrils; test: Dynamic PET imaging and ex vivo brain radioactivity in rats with α-syn fibrils implanted in the right striatum; conditions: Wistar rat
Excerpt: The next step in the characterization of our new PET tracer was to evaluate its ability to bind in vivo to α-syn fibrils. For this aim, we performed a simple preliminary imaging experiment in which the same α-syn fibrils as those used in in vitro experiments were surgically and unilaterally implanted in the brains of two adult Wistar rats. The accumulation of [^18F]45 after intravenous (i.v.) injection was compared, in each animal, between the implanted and intact non-implanted side. The fibrils were administered by stereotaxic injection into the right striatum, [^18F]45 was i.v. injected 1 day later, and image acquisition began at the time of injection using a microPET eXplore Vista (GE Healthcare, Buc, France)/CT system during 3 h. PET images were reconstructed and analyzed in three regions of interest, i.e., the left striatum without fibrils (C-ST), the right striatum with fibrils (I-ST), and the cerebellum (CE). At the end of imaging acquisition, each rat was sacrificed, and brain regions were removed, weighed, and their radioactivity measured.
PET imaging experiments were performed with [^18F]45 on two adult male Wistar rats weighing 250–300 g (Janvier, Le Genest-Saint-Isle, France). The animals were housed in a temperature (23 °C) and humidity (43%) controlled environment under a 12-h light-dark cycle with food and water available ad libitum, and experimental procedures were conducted in accordance with the requirements of the European Community Council Directive 2010/63/EU for the care of laboratory animals and with the authorization of the Regional Ethical Committee (Authorization N°2012-03-1).
The rats were scanned one hour after receiving an intra-cerebral administration of α-syn. They were anesthetized with isoflurane (4% in O2, 500 mL/min, Baxter, France), placed on a stereotaxic frame (Stoelting, Phymep, Paris, France) and maintained under isoflurane 2.5% (500 mL/min) during surgery. Body temperature was monitored and kept at 37 °C. Fibrils of α-syn were prepared as described above (solution of 10 mg/mL in PBS). This solution was administered in two sites of the right striatum of each rat using a 25 μL Hamilton Gastight syringe (Hamilton, Massy, France) with a 30-gauge needle (Phymep, Paris, France) connected to a perfusion system. […]
For the PET experiment, each rat was anesthetized with isoflurane (Baxter, Guyancourt, France), at 4–5% in O2 for induction and then 1.5–2% during scanning, and received an i.v. bolus injection of 42–46 MBq of [^18F]45 (molar activity 99.69 GBq/µmol) into the tail vein. […] The quantification of the tracer uptake was extracted from the last 6 120-s frames corresponding to 49–61 min of acquisition after tracer injection. […] PET images were reconstructed and analyzed using PMOD (3.403, PMOD Technologies, Zurich, Switzerland). […]

tau fibrils = conditions: cited from earlier work
[9] = calculated from IC50, competition with ThT 500 nM, fibrils 200 nM, mean ± SD of 3 experiments

T1 sequence (P05067 672-713): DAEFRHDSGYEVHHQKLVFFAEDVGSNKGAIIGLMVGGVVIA
T2 sequence (P10636 1-441 isoform P10636-8): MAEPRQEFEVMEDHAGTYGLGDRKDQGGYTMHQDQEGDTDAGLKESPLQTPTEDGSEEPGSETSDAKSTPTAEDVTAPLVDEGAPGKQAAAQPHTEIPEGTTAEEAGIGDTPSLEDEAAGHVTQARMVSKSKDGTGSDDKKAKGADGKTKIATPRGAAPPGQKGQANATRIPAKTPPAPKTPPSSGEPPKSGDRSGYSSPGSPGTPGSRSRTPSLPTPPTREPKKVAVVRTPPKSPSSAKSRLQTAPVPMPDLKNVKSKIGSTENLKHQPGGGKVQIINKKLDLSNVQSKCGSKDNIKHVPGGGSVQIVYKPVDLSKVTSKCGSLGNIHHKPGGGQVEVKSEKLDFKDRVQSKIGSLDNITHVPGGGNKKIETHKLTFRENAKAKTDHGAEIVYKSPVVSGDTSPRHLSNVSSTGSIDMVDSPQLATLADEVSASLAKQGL

| Compound | Ki (Aβ1-42 fibrils [1]) [nM] | Ki [2] [nM] | Ki (α-syn fibrils [3]) [nM] | further results |
| --- | --- | --- | --- | --- |
| C(#Cc1cc2ccccc2[nH]1)c1ccccc1 [Compound 31] | 68.9 ± 30 | 19.6 ± 2 | > 100 |  |
| Cc1ccc(C#Cc2cc3ccccc3[nH]2)cc1 [Compound 32] | 37.9 ± 13 | 13.1 ± 2 | > 100 |  |
| CCc1ccc(C#Cc2cc3ccccc3[nH]2)cc1 [Compound 33] | 3.3 ± 1 | 32.9 ± 8 | 35.9 ± 5 |  |
| COc1ccc(C#Cc2cc3ccccc3[nH]2)cc1 [Compound 34] | 68.9 ± 14 | 33.1 ± 7 | 96.7 ± 14 |  |
| Nc1ccc(C#Cc2cc3ccccc3[nH]2)cc1 [Compound 35] | 26.2 ± 11 | 123 ± 28 | 40.4 ± 6 |  |
| Nc1cccc(C#Cc2cc3ccccc3[nH]2)c1 [Compound 36] | 15.3 ± 7 | 7.2 ± 1 | > 100 |  |
| CNc1ccc(C#Cc2cc3ccccc3[nH]2)cc1 [Compound 37] | 6.6 ± 2 | 17.2 ± 3 | 47.8 ± 9 |  |
| CN(C)c1ccc(C#Cc2cc3ccccc3[nH]2)cc1 [Compound 38] | 64.4 ± 40 | 27.6 ± 3 | 36 ± 7 |  |
| COc1ccc2[nH]c(C#Cc3ccc(N(C)C)cc3)cc2c1 [Compound 39] |  | 12.7 ± 1 | 21.7 ± 6 |  |
| CN(C)c1ccc(C#Cc2cc3cc(OCCF)ccc3[nH]2)cc1 [Compound 40] | 10.1 ± 5 | 15.8 ± 3 | > 100 |  |
| CN(C)c1ccc(C#Cc2cc3ncccc3[nH]2)cc1 [Compound 41] | 21.3 ± 7 | 12 ± 1 |  | Kd (α-syn fibrils [4]): 3.25 ± 0.2 nM; Kd (Aβ1-42 fibrils [5]): 2.9 ± 2 nM; Kd [6]: 0.13 ± 0.05 nM; Ki (α-syn fibrils [3]; [9]): 26 ± 16 nM |
| CN(C)c1ccc(C#Cc2cc3ccncc3[nH]2)cc1 [Compound 42] | 91.5 ± 11 | 8.4 ± 1 |  | Kd (α-syn fibrils [4]): 1.4 ± 1 nM; Kd (Aβ1-42 fibrils [5]): 5.2 ± 3 nM; Kd [6]: 0.49 ± 0.2 nM; Ki (α-syn fibrils [3]; [9]): 28.7 ± 8 nM |
| CN(C)c1ccc(C#Cc2cc3cnccc3[nH]2)cc1 [Compound 44] | 21.3 ± 7 |  | 26 ± 16 | Kd (α-syn fibrils [4]): 1 ± 0.5 nM; Kd (Aβ1-42 fibrils [5]): 3.6 ± 2 nM; Kd [6]: 2.4 ± 0.9 nM |
| CN([11CH3])c1ccc(-c2cc(-c3ccnc(Br)c3)[nH]n2)cc1 [[^11C]MODAG-001] |  |  |  | better affinity for α-syn as compared to Aβ and tau fibrils (α-syn fibrils [7]; in vitro): around 20 times |
| CN(c1ccc(/C=C/c2nc3ccccc3o2)cc1)S(=O)(=O)c1ccccc1[18F] [[^18F]2FBox] |  |  |  | Kd (Aβ fibrils; in vitro, read-out: Kd for Aβ): 145 nM; Kd (α-syn fibrils [7]; in vitro, read-out: Kd for α-syn fibrils): 3.3 nM |
| CN(CC[18F])c1ccc(C#Cc2cc3cccnc3[nH]2)cc1 [[^18F]45] |  |  |  | radioactivity accumulation in the three brain regions (CE, I-ST, C-ST) at the end of imaging (α-syn fibrils [8]; ex vivo γ-counting after PET, n = 2): identical radioactivity accumulation; ability to cross the blood–brain barrier (α-syn fibrils [8]; i.v. 42–46 MBq, dynamic PET 3 h): able to cross the blood–brain barrier; brain uptake kinetics (time-activity curves) (α-syn fibrils [8]; i.v. 42–46 MBq, dynamic PET 3 h, CE, I-ST, C-ST): slow uptake and almost no washout; specificity of brain uptake / in vivo binding to implanted α-syn fibrils (α-syn fibrils [8]; α-syn fibrils in right striatum, i.v. 42–46 MBq): non-specific uptake was observed |
| COc1cccc2ccc(/C=N/N=C/c3ccc4cccc(OCC[18F])c4n3)nc12 [[^18F]BQ2] |  |  |  | Ki for Aβ (Aβ fibrils; compared with Ki for α-syn): same Ki for Aβ; Ki (α-syn fibrils [7]): ~10 nM |
| Cc1cc2nc(/C=C/c3ccc(O)c(Br)c3)sc2cc1N(C)CCOCC[18F] [[^18F]F0502B] |  |  |  | Kd (Aβ fibrils; read-out: Kd for Aβ fibrils): ~100 nM; Kd (tau fibrils): ~100 nM; Kd (α-syn fibrils [7]; read-out: Kd for α-syn): ~10 nM |
| [18F]c1ccc2nc(/C=C/c3ccc(N4CCOCC4)cc3)sc2c1 [[^18F]MFSB] |  |  |  | Kd (Aβ fibrils; read-out: Kd for Aβ fibrils): ~100 nM; Kd (tau fibrils): ~100 nM; Kd (α-syn fibrils [7]; read-out: Kd for α-syn): ~10 nM |
| O=C1/C(=C\C=C\c2ccc([N+](=O)[O-])cc2)c2ccccc2N1Cc1ccc(OCC[18F])cc1 [[^18F]indolone] |  |  |  | selectivity towards Aβ fibrils (Aβ fibrils; α-syn versus Aβ): 27 fold; selectivity for α-syn over tau fibrils (tau fibrils; α-syn versus tau): 5 fold; Ki (α-syn fibrils [7]; in vitro): 10 nM |
